Laboratory results published in patent US20240083839A1, “COMPOSITIONS AND METHODS FOR TREATING NEURODEGENERATIVE DISEASES AND DISORDERS” (The Regents of the University of California, priority 2020, published 2024).
Where a name gives a salt, the structure may show the parent alone.

Experiments:
[1] = test system: SirT1 levels in N2a-E4 cells; assay: SirT1 levels by AlphaLISA in ApoE4-transfected N2a cells; format: cell-based, murine; details: for SirT1 increase: N2a-E4 cells
Experimental: Prompted by the emerging importance of the associations between ApoE4 and the expression/protein levels of SirT1, high-throughput screening (HTS) of the UCLA compound library was performed using AlphaLISA to detect SirT1 levels in murine neuroblastoma cells stably transfected with ApoE4 (E4-N2a) to identify SirT1 enhancers. […] In the in vivo study, mice were treated orally at 40 mkd (20 mg/kg BID) for 56 days and underwent assessment of cognition in the Novel Object Recognition (NOR) testing paradigm. […] The performance of A03-treated E4-AD mice (FIG. 5A) improved to level of non-transgenic vehicle-treated mice.
Throughout, for PAMPA: unit not given here.

PAMPA (PAMPA)	SMILES	SirT1 SOμM [1]	SirT1 SμM [1]	SirT1 increase [1]
	C[C@H](NC(=O)OC(C)(C)C)C(=O)N[C@H]1CCC[C@H]1c1ccc(Cl)cc1 (mixture of isomers) [MP-95, tert-butyl-((S)-1-(((±)-cis-2-(4-chlorophenyl)cyclopentyl)amino)-1-oxopropan-2-yl)carbamate]	a, a (a <250%)	a, a (a <250%)	
	C[C@H](N)C(=O)N[C@H]1CCCCNC1=O.Cl (racemic) [MP-103, (S)-2-amino-N—((S)-2-oxoazepan-3-yl)propanamide hydrochloride]	a, a (a <250%)	a, a (a <250%)	
0.68	C[C@H](N)C(=O)OC1(Cc2ccc(Cl)cc2)CCNC1 (single isomer, unassigned) [MP-32, 3-(4-chlorobenzyl)pyrrolidin-3-yl L-alaninate]	C (C = 100% increase versus control)	A (A >20%)	
0.7	C[C@H](N)C(=O)OC1(Cc2ccc(Cl)cc2)CCNC1 (single isomer, unassigned) [MP-33, 3-(4-chlorobenzyl)pyrrolidin-3-yl L-alaninate]	C (C = 100% increase versus control)	A (A >20%)	
	C[C@H](NC(=O)OC(C)(C)C)C(=O)O[C@H]1CCC[C@@H]1c1ccc(Cl)cc1 (single isomer, unassigned) [MP-87]	a, a (a <250%)	a, a (a <250%)	
	C[C@H](NC(=O)OC(C)(C)C)C(=O)O[C@H]1CCC[C@@H]1c1ccc(Cl)cc1 (single isomer, unassigned) [MP-88]	a, a (a <250%)	a, a (a <250%)	
	C[C@H](N)C(=O)O[C@@H]1CCC[C@H]1c1ccc(Cl)cc1.Cl (single isomer, unassigned) [MP-90]	a, a (a <250%)	a, a (a <250%)	
	C[C@H](NC(=O)OC(C)(C)C)C(=O)O[C@H]1CCC[C@H]1c1ccc(Cl)cc1 (single isomer, unassigned) [MP-91]	a, a (a <250%)	a, a (a <250%)	
	C[C@H](NC(=O)OC(C)(C)C)C(=O)O[C@H]1CCC[C@H]1c1ccc(Cl)cc1 (single isomer, unassigned) [MP-92]	a, a (a <250%)	a, a (a <250%)	
	C[C@H](N)C(=O)O[C@@H]1CCC[C@@H]1c1ccc(Cl)cc1.Cl (single isomer, unassigned) [MP-93]	C (C = 100% increase versus control)	A (A >20%)	
	C[C@H](N)C(=O)O[C@H]1CCC[C@H]1c1ccc(Cl)cc1.Cl (single isomer, unassigned) [MP-94]	A (A >20%)	a (a <250%)	
	C[C@H](NC(=O)OC(C)(C)C)C(=O)N[C@@H]1CCC[C@@H]1c1ccc(Cl)cc1 (single isomer, unassigned) [MP-96]	a, a (a <250%)	a, a (a <250%)	
1.02(2)	C[C@@H](N)C(=O)OC1(Cc2ccc(Cl)cc2)CCNCC1 (stereo in doubt) [MP-49, 4-(4-chlorobenzyl)piperidin-4-yl alaninate]	B (B >50%)	A (A >20%)	
	C[C@H](NC(=O)OC(C)(C)C)C(=O)N(C)[C@H]1CCC(c2ccc(Cl)c(Cl)c2)c2ccccc21 (stereo in doubt) [MP-80, tert-butyl ((S)-1-(((1S,4R)-4-(3,4-dichlorophenyl)-1,2,3,4-tetrahydronaphthalen-1-yl)(methyl)amino)-1-oxopropan-2-yl)carbamate]	a, a (a <250%)	a, a (a <250%)	
	C[C@H](N)C(=O)N(C)[C@H]1CCC(c2ccc(Cl)c(Cl)c2)c2ccccc21.Cl (stereo in doubt) [MP-81, (S)-2-amino-N-((1S,4R)-4-(3,4-dichlorophenyl)-1,2,3,4-tetrahydronaphthalen-1-yl)-N-methylpropanamide hydrochloride]	B, B (B >50%)	B, B (B >50%)	
	O=C1NCc2ccccc2C[C@@H]1N[C@@H](c1ccccc1)[C@H](O)c1ccccc1 (stereo in doubt) [MP-102, 4(R)-(1R,2S)-1,2-diphenyl-2-hydroxyethylamino-2,3,4,5-tetrahydro-1H-2-benzazepin-3-one]	a, a (a <250%)	a, a (a <250%)	
4.72	CC(C)(Cc1ccc(Cl)cc1)OC(=O)C(N)Cc1ccccc1 (stereo not drawn) [MP-01, 1-(4-chlorophenyl)-2-methylpropan-2-yl 2-amino-3-phenylpropanoate]	A, A (A >20%)	A, A (A >20%)	
3.17	CC(N)C(=O)OC(C)(C)Cc1ccccc1 (stereo not drawn) [MP-02, 2-methyl-1-phenylpropan-2-yl 2-aminopropanoate]	A, A (A >20%)	A, A (A >20%)	
2.37	CC(N)C(=O)OC(C)(C)Cc1ccc(F)c(F)c1 (stereo not drawn) [MP-03, 1-(3,4-difluorophenyl)-2-methylpropan-2-yl 2-aminopropanoate]	C (C = 100% increase versus control)	B (B >50%)	
2.75	CC(N)C(=O)OC(C)(C)Cc1ccc(F)cc1 (stereo not drawn) [MP-04, 1-(4-fluorophenyl)-2-methylpropan-2-yl 2-aminopropanoate]	B (B >50%)	A (A >20%)	

PAMPA (PAMPA)	SMILES	SirT1 SOμM [1]	SirT1 SμM [1]	SirT1 increase [1]
	C[C@H](N)C(=O)Nc1cccc2ccccc12 [MP-54, (S)-2-amino-N-(naphthalen-1-yl)propanamide]	C (C = 100% increase versus control)	A (A >20%)	
	C[C@H](Nc1ccccc1-c1ccccc1)C(N)=O [MP-60]	B (B >50%)	A (A >20%)	
	N[C@H]1Cc2ccccc2CNC1=O [MP-71, (S)-4-amino-4,5-dihydro-1H-benzo[c]azepin-3(2H)-one hydrochloride]	C (C = 100% increase versus control)	B (B >50%)	
	C[C@H](NC(=O)OC(C)(C)C)C(=O)OC(C)(C)Cc1ccc(C(F)(F)F)cc1 [MP-75, 2-methyl-1-(4-(trifluoromethyl)phenyl)propan-2-yl 2-((tert-butoxycarbonyl)amino)propanoate]	a, a (a <250%)	a, a (a <250%)	
	C[C@H](N)C(=O)NC(C)(C)Cc1ccc(F)cc1.Cl [MP-83, (S)-2-amino-N-(1-(4-fluorophenyl)-2-methylpropan-2-yl)propanamide hydrochloride]	A (A >20%)	a (a <250%)	
	C[C@H](N)C(=O)NC1CCc2ccccc2NC1=O (stereo partly drawn) [MP-84, (2S)-2-amino-N-(2-oxo-2,3,4,5-tetrahydro-1H-benzo[b]azepin-3-yl)propanamide hydrochloride]	A (A >20%)	a (a <250%)	
	C[C@H](NC(=O)OC(C)(C)C)C(=O)N[C@H]1CCC[C@@H]1c1ccc(Cl)cc1 [MP-85, tert-butyl ((S)-1-(((1S,2R)-2-(4-chlorophenyl)cyclopentyl)amino)-1-oxopropan-2-yl)carbamate]	a, a (a <250%)	a, a (a <250%)	
	C[C@H](N)C(=O)N[C@H]1CCC[C@@H]1c1ccc(Cl)cc1.Cl [MP-86, (S)-2-amino-N-((1S,2R)-2-(4-chlorophenyl)cyclopentyl)propanamide]	B (B >50%)	A (A >20%)	
	C[C@H](N)C(=O)O[C@@H]1CCC[C@H]1c1ccc(Cl)cc1.Cl [MP-89, (S)-(1R,2S)-2-(4-chlorophenyl)cyclopentyl 2-aminopropanoate hydrochloride]	A (A >20%)	a (a <250%)	
	C[C@H](N)C(=O)NC(C)(C)Cc1ccncc1.Cl [MP-100, (S)-2-amino-N-(2-methyl-1-(pyridin-4-yl)propan-2-yl)propanamide hydrochloride]	A, A (A >20%)	A, A (A >20%)	
	C[C@H](N)C(=O)NC(C)(C)c1ccc(Cl)cc1.Cl [MP-101, (S)-2-amino-N-(2-(4-chlorophenyl)propan-2-yl)propanamide hydrochloride]	B (B >50%)	a (a <250%)	
	C[C@H](N)C(=O)N[C@H]1Cc2ccccc2CN(C)C1=O.Cl [MP-104, (S)-2-amino-N—((S)-2-methyl-3-oxo-2,3,4,5-tetrahydro-1H-benzo[c]azepin-4-yl)propanamide hydrochloride]	A (A >20%)	a (a <250%)	
	C[C@H](N)C(=O)N[C@H]1Cc2ccccc2CNC1=O.Cl [MP-105, (S)-2-amino-N—((S)-3-oxo-2,3,4,5-tetrahydro-1H-benzo[c]azepin-4-yl)propanamide hydrochloride]	a, a (a <250%)	a, a (a <250%)	
	C[C@H](N)C(=O)NC(C)(Cc1cc(F)cc(F)c1)Cc1cc(F)cc(F)c1 [MP-106, (S)-2-amino-N-(1,3-bis(3,5-difluorophenyl)-2-methylpropan-2-yl)propanamide hydrochloride]	a, a (a <250%)	a, a (a <250%)	
	N[C@@H](CO)C(=O)NCCc1ccc(Cl)cc1 [MP-107]	A, A (A >20%)	A, A (A >20%)	
	CN1Cc2ccccc2C[C@H](N)C1=O [MP-108]	A, A (A >20%)	A, A (A >20%)	
	Cl.N[C@H]1Cc2cc(Cl)ccc2CNC1=O [MP-109, (S)-4-amino-7-chloro-4,5-dihydro-1H-benzo[c]azepin-3(2H)-one]	B (B >50%)	A (A >20%)	increases SirT1
	CNCCC(Oc1ccc(C(F)(F)F)cc1)c1ccccc1 (stereo not drawn) [fluoxetine, reference compound]			did not increase SirT1
	CC12CC3CC(C)(C1)CC(N)(C3)C2 [memantine, reference compound]			did not increase SirT1
